Measured values as given in US9763445B2, “Safened herbicidal compositions comprising a pyridine carboxylic acid herbicide” (Dow AgroSciences, LLC, priority 2014, dated 2017).

Columns and labels:
[1] = system: purple deadnettle (LAMPU); assay: Postemergence greenhouse trial, % visual injury on purple deadnettle; format: in vivo, Lamium purpureum
How it was run: (§1)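 Herbicide rates g ae/ha, safener (cloquintocet-mexyl) rates g ai/ha; spray carrier 1.5% v/v crop oil concentrate, 187 L/ha, 2nd–3rd leaf stage. Rating: visual % injury at 20-22 d.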

kochia (KCHSC) = assay: Postemergence greenhouse trial, % visual injury on kochia; format: in vivo, Kochia scoparia; settings: for % visual injury, Ob / % visual injury, observed (Ob): KCHSC
How it was run: as §1

lambsquarters (CHEAL) = assay: Postemergence greenhouse trial, % visual injury on lambsquarters; format: in vivo, Chenopodium album; settings: for % visual injury, Ob / % visual injury, observed (Ob): CHEAL
How it was run: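 Visual injury, 0 (none) to 100 (complete kill), rated 20-22 d after overhead track-sprayer application at 187 L/ha; Colby's equation gave expected mixture responses. Herbicide (g ae/ha) and cloquintocet-mexyl safener (g ai/ha) diluted in aqueous 1.5% v/v Agri-dex, applied to weeds at 2–3 true leaves.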

[2] = system: bird's-eye speedwell (VERPE); assay: Postemergence greenhouse trial, % visual injury on bird's-eye speedwell; format: in vivo, Veronica persica
How it was run: as §1

[3] = compound 8 0 + CQC-m 4.375 g/ha

CCCCCC(C)OC(=O)COc1ccc(Cl)c2cccnc12 (stereo not shown) [CQC-m, cloquintocet-mexyl, reference compound]
0%: % visual injury, Ob ([1]; LAMPU, compound 0, CQC-m 4.375 g/ha) | % visual injury, Ob ([1]; LAMPU, compound 0, CQC-m 8.75 g/ha) | % visual injury, Ob ([1]; LAMPU, compound 0, CQC-m 17.5 g/ha) | % visual injury, Ob ([1]; LAMPU, compound 0, CQC-m 35 g/ha) | % visual injury, Ob ([1]; LAMPU, compound 0, CQC-m 70 g/ha) | % visual injury, Ob ([1]; LAMPU, compound 0 g/ha, CQC-m 4.375 g/ha) | % visual injury, Ob ([1]; LAMPU, compound 0 g/ha, CQC-m 8.75 g/ha) | % visual injury, Ob ([1]; LAMPU, compound 0 g/ha, CQC-m 17.5 g/ha) | % visual injury, Ob ([1]; LAMPU, compound 0 g/ha, CQC-m 35 g/ha) | % visual injury, Ob ([1]; LAMPU, compound 0 g/ha, CQC-m 70 g/ha) | % visual injury, Ob ([1]; alone, 4.375 g/ha) | % visual injury, Ob ([1]; alone, 8.75 g/ha) | % visual injury, Ob ([1]; alone, 17.5 g/ha) | % visual injury, Ob ([1]; alone, 35 g/ha) | % visual injury, Ob ([1]; alone, 70 g/ha) | pest or weed control at 4.375 g/ha (kochia (KCHSC); Bassia scoparia, post-emergence, alone, 4.375 g/ha, read-out: % visual injury, Ob) | pest or weed control at 8.75 g/ha (kochia (KCHSC); Bassia scoparia, post-emergence, alone, 8.75 g/ha, read-out: % visual injury, Ob) | pest or weed control at 17.5 g/ha (kochia (KCHSC); Bassia scoparia, post-emergence, alone, 17.5 g/ha, read-out: % visual injury, Ob) | pest or weed control at 20 g/ha (kochia (KCHSC); Bassia scoparia, post-emergence, alone, 20 g/ha, read-out: % visual injury, Ob) | pest or weed control at 35 g/ha (kochia (KCHSC); Bassia scoparia, post-emergence, alone, 35 g/ha, read-out: % visual injury, Ob) | pest or weed control at 40 g/ha (kochia (KCHSC); Bassia scoparia, post-emergence, alone, 40 g/ha, read-out: % visual injury, Ob) | pest or weed control at 70 g/ha (kochia (KCHSC); Bassia scoparia, post-emergence, alone, 70 g/ha, read-out: % visual injury, Ob) | pest or weed control at 80 g/ha (kochia (KCHSC); Bassia scoparia, post-emergence, alone, 80 g/ha, read-out: % visual injury, Ob) | % visual injury, Ob (kochia (KCHSC); 4.375 g/ha, applied alone) | % visual injury, Ob (kochia (KCHSC); 8.75 g/ha, applied alone) | % visual injury, Ob (kochia (KCHSC); 17.5 g/ha, applied alone) | % visual injury, Ob (kochia (KCHSC); 35 g/ha, applied alone) | % visual injury, Ob (kochia (KCHSC); 70 g/ha, applied alone) | % visual injury, Ob (kochia (KCHSC); compound 0, CQC-m 4.375 g/ha) | % visual injury, Ob (kochia (KCHSC); compound 0, CQC-m 8.75 g/ha) | % visual injury, Ob (kochia (KCHSC); compound 0, CQC-m 17.5 g/ha) | % visual injury, Ob (kochia (KCHSC); compound 0, CQC-m 35 g/ha) | % visual injury, Ob (kochia (KCHSC); compound 0, CQC-m 70 g/ha) | % visual injury, Ob (kochia (KCHSC); compound 0 g/ha, CQC-m 4.375 g/ha) | % visual injury, Ob (kochia (KCHSC); compound 0 g/ha, CQC-m 8.75 g/ha) | % visual injury, Ob (kochia (KCHSC); compound 0 g/ha, CQC-m 17.5 g/ha) | % visual injury, Ob (kochia (KCHSC); compound 0 g/ha, CQC-m 35 g/ha) | % visual injury, Ob (kochia (KCHSC); compound 0 g/ha, CQC-m 70 g/ha) | % visual injury, observed (Ob) (kochia (KCHSC); [3]) | % visual injury, observed (Ob) (kochia (KCHSC); compound 8 0 + CQC-m 8.75 g/ha) | % visual injury, observed (Ob) (kochia (KCHSC); compound 8 0 + CQC-m 17.5 g/ha) | % visual injury, observed (Ob) (kochia (KCHSC); compound 8 0 + CQC-m 35 g/ha) | % visual injury, observed (Ob) (kochia (KCHSC); compound 8 0 + CQC-m 70 g/ha) | % visual injury, Ob (lambsquarters (CHEAL); 4.375 g/ha, applied alone) | % visual injury, Ob (lambsquarters (CHEAL); 8.75 g/ha, applied alone) | % visual injury, Ob (lambsquarters (CHEAL); 17.5 g/ha, applied alone) | % visual injury, Ob (lambsquarters (CHEAL); 35 g/ha, applied alone) | % visual injury, Ob (lambsquarters (CHEAL); 70 g/ha, applied alone) | % visual injury, Ob (lambsquarters (CHEAL); compound 0, CQC-m 4.375 g/ha) | % visual injury, Ob (lambsquarters (CHEAL); compound 0, CQC-m 8.75 g/ha) | % visual injury, Ob (lambsquarters (CHEAL); compound 0, CQC-m 17.5 g/ha) | % visual injury, Ob (lambsquarters (CHEAL); compound 0, CQC-m 35 g/ha) | % visual injury, Ob (lambsquarters (CHEAL); compound 0, CQC-m 70 g/ha) | % visual injury, observed (Ob) (lambsquarters (CHEAL); [3]) | % visual injury, observed (Ob) (lambsquarters (CHEAL); compound 8 0 + CQC-m 8.75 g/ha) | % visual injury, observed (Ob) (lambsquarters (CHEAL); compound 8 0 + CQC-m 17.5 g/ha) | % visual injury, observed (Ob) (lambsquarters (CHEAL); compound 8 0 + CQC-m 35 g/ha) | % visual injury, observed (Ob) (lambsquarters (CHEAL); compound 8 0 + CQC-m 70 g/ha) | pest or weed control at 4.375 g/ha (lambsquarters (CHEAL); Chenopodium album, post-emergence, alone, 4.375 g/ha, read-out: % visual injury, Ob) | pest or weed control at 8.75 g/ha (lambsquarters (CHEAL); Chenopodium album, post-emergence, alone, 8.75 g/ha, read-out: % visual injury, Ob) | pest or weed control at 17.5 g/ha (lambsquarters (CHEAL); Chenopodium album, post-emergence, alone, 17.5 g/ha, read-out: % visual injury, Ob) | pest or weed control at 20 g/ha (lambsquarters (CHEAL); Chenopodium album, post-emergence, alone, 20 g/ha, read-out: % visual injury, Ob) | pest or weed control at 35 g/ha (lambsquarters (CHEAL); Chenopodium album, post-emergence, alone, 35 g/ha, read-out: % visual injury, Ob) | pest or weed control at 40 g/ha (lambsquarters (CHEAL); Chenopodium album, post-emergence, alone, 40 g/ha, read-out: % visual injury, Ob) | pest or weed control at 70 g/ha (lambsquarters (CHEAL); Chenopodium album, post-emergence, alone, 70 g/ha, read-out: % visual injury, Ob) | pest or weed control at 80 g/ha (lambsquarters (CHEAL); Chenopodium album, post-emergence, alone, 80 g/ha, read-out: % visual injury, Ob) | % visual injury, Ob ([2]; VERPE, compound 0, CQC-m 4.375 g/ha) | % visual injury, Ob ([2]; VERPE, compound 0, CQC-m 8.75 g/ha) | % visual injury, Ob ([2]; VERPE, compound 0, CQC-m 17.5 g/ha) | % visual injury, Ob ([2]; VERPE, compound 0, CQC-m 35 g/ha) | % visual injury, Ob ([2]; VERPE, compound 0, CQC-m 70 g/ha) | % visual injury, Ob ([2]; VERPE, compound 0 g/ha, CQC-m 4.375 g/ha) | % visual injury, Ob ([2]; VERPE, compound 0 g/ha, CQC-m 8.75 g/ha) | % visual injury, Ob ([2]; VERPE, compound 0 g/ha, CQC-m 17.5 g/ha) | % visual injury, Ob ([2]; VERPE, compound 0 g/ha, CQC-m 35 g/ha) | % visual injury, Ob ([2]; VERPE, compound 0 g/ha, CQC-m 70 g/ha) | % visual injury, observed (Ob) ([2]; VERPE, compound 8 0 + CQC-m 4.375 g/ha) | % visual injury, observed (Ob) ([2]; VERPE, compound 8 0 + CQC-m 8.75 g/ha) | % visual injury, observed (Ob) ([2]; VERPE, compound 8 0 + CQC-m 17.5 g/ha) | % visual injury, observed (Ob) ([2]; VERPE, compound 8 0 + CQC-m 35 g/ha) | % visual injury, observed (Ob) ([2]; VERPE, compound 8 0 + CQC-m 70 g/ha) | % visual injury, Ob ([2]; alone, 4.375 g/ha)
